Data on 23 compounds can be found in patent publication US20240116877A1, “KIT KINASE INHIBITORS AND METHODS OF USE THEREOF” (Deciphera Pharmaceuticals, LLC, priority 2021, published 2024).

In test [1] the test system is Ba/F3 KIT mutant cells. The test can be described thus: Ba/F3 mutant KIT Cell Proliferation Assays (resazurin). Format: cell-based. To be noted: Mus musculus, BaF3. The procedure, abridged:
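IC50 values come from resazurin fluorescence (ex 540, em 600) after 5 h dye exposure, added as a 440 μM solution. Cells were IL-3-independent Ba/F3 expressing mutant KIT from a lentiviral vector, puromycin-selected.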

The subject of test [2] is GIST 430 cells. In words: GIST 430 Cell Proliferation Assay (resazurin). The format is cell-based. To be noted: Homo sapiens; GIST430 cell proliferation. The procedure, abridged: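 Five thousand cells per well were exposed to serially diluted compound in complete growth medium for 115 h at 37 degrees Celsius, 5% CO2. Resazurin was then added for a further 5 h, fluorescence read at 540 nm excitation/600 nm emission, and IC50 values calculated.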
Background: The colour change of resazurin is a common sign of viable cells or microbes.

For test [3], the target named is c-KIT kinase (uKIT) (Homo sapiens (Human), UniProt P10721). The test can be described thus: Biochemical Assay for uKIT (coupled pyruvate kinase/lactate dehydrogenase assay). To be noted: Inhibition of biochemical activity of uKIT kinase; 1 mM ATP. The procedure, abridged: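 Continuous coupled PK/LDH assay following NADH oxidation at 340 nm for 6 h at 30° C, with 16 nM or 4.36 nM KIT (two constructs), 0.7 mg/mL PE4Y, 1 mM ATP, pH 7.5. Rates from the 2-3 h window converted to percent inhibition versus controls; IC50 fitted.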

Where [4] appears, read: Ba/F3 KIT AYdup mutant cell proliferation, read-out: AYdup IC50.
The mark [5] stands for this setting: Ba/F3 KIT AYdup-D816G mutant cell proliferation, read-out: AYdup-D816G IC50.
[6] abbreviates: Ba/F3 KIT AYdup-V654A mutant cell proliferation, read-out: AYdup-V654A IC50.
[7] abbreviates: Ba/F3 KIT exon11del-V654A mutant cell proliferation, read-out: exon11del-V654A IC50.
Where [8] appears, read: Ba/F3 KIT exon11del-Y823D mutant cell proliferation, read-out: exon11del-Y823D IC50.

SMILES strings stand for the structures. Read-outs that look alike come from different tables or passages of the source.

Sequence of c-KIT kinase (uKIT) (P10721 other isoform, or with tags, fused parts or gaps): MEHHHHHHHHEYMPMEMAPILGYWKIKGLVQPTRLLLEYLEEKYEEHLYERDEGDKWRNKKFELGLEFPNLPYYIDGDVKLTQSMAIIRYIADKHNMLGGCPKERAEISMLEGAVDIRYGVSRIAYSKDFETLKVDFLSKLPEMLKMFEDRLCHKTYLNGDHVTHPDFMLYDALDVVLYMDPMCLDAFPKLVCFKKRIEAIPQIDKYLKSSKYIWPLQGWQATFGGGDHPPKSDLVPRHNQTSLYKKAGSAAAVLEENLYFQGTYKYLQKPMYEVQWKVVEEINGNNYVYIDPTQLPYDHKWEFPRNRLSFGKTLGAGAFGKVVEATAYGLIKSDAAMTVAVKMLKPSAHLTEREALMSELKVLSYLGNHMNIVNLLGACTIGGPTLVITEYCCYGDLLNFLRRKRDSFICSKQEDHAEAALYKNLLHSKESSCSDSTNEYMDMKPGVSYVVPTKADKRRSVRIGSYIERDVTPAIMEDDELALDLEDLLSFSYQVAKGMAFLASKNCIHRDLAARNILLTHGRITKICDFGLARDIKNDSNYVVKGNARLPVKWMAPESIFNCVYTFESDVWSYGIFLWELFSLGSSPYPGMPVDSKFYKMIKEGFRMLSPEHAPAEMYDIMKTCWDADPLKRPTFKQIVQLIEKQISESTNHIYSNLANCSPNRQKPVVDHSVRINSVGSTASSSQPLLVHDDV

Regarding `COCCOc1cc(F)c2c(Nc3ccc(NC(=O)CC(=O)NC4CCCCC4)cc3)ncnc2c1` [Example 97], the IC50 in test [1] (setting [4]) is ≤ 10 nM; in test [1] (setting [5]), 10 to 100 nM; in test [1] (setting [6]), 10 to 100 nM; in test [1] (setting [7]) it was ≤ 10 nM; in test [1] (setting [8]), 10 to 100 nM; in test [2], ≤ 10 nM. In test [3], the IC50 was ≤ 10 nM.
Consider `COCCOc1cc(F)c2c(Nc3ccc(NC(=O)CC(=O)NCC4(C#N)CC4)cc3)ncnc2c1` [Example 98], for which the IC50 in test [1] (setting [6]) is 100 to 1000 nM; in test [1] (setting [7]) it was 10 to 100 nM; in test [1] (setting [8]), > 1000 nM; in test [2], 100 to 1000 nM; in test [3] it was 10 to 100 nM.
For the compound `COCCOc1cc(F)c2c(Nc3ccc(NC(=O)NCCCC(C)(C)C#N)cc3)ncnc2c1` [Example 99], the IC50 is 10 to 100 nM in test [1] (setting [6]); ≤ 10 nM in test [1] (setting [7]); 10 to 100 nM in test [1] (setting [8]); ≤ 10 nM in test [2]; ≤ 10 nM in test [3].
Consider `COCCOc1cc(F)c2c(Nc3ccc(NC(=O)CC(=O)NCCC(C)C)cc3)ncnc2c1` [Example 100], for which the IC50 in test [1] (setting [6]) lay within 10 to 100 nM; in test [1] (setting [7]), 10 to 100 nM; in test [1] (setting [8]), 100 to 1000 nM; in test [2], 10 to 100 nM; in test [3], 10 to 100 nM.
As to `COCCOc1cc(F)c2c(Nc3ccc(NC(=O)CC(=O)NC[C@H]4CCCO4)cc3)ncnc2c1` [Example 101], the IC50 in test [1] (setting [6]) is 100 to 1000 nM; in test [1] (setting [7]), 10 to 100 nM; in test [1] (setting [8]), > 1000 nM; in test [2], 100 to 1000 nM; in test [3], 100 to 1000 nM.
Turning to `COCCOc1cc(F)c2c(Nc3ccc(NC(=O)CNC(=O)CC(C)(C)C)cc3)ncnc2c1` [Example 102], the IC50 in test [1] (setting [4]) was ≤ 10 nM; in test [1] (setting [5]) it was 10 to 100 nM; in test [1] (setting [6]) it was 10 to 100 nM; in test [1] (setting [7]), 10 to 100 nM; in test [1] (setting [8]), 10 to 100 nM; in test [2], ≤ 10 nM. This compound also gave an IC50 in test [3] of 10 to 100 nM.
In the case of `COCCOc1cc(F)c2c(Nc3ccc(NC(=O)CNC(=O)C(C)(C)C)cc3)ncnc2c1` [Example 103], the IC50 in test [1] (setting [6]) was 10 to 100 nM; in test [1] (setting [7]), 10 to 100 nM; in test [1] (setting [8]) it was 100 to 1000 nM; in test [2] it was ≤ 10 nM; in test [3] it was 10 to 100 nM.
With `CC(C)(C#N)CCNC(=O)Nc1ccc(Nc2ncnc3cc(OCCN4CCOCC4)cc(F)c23)cc1` [Example 104], the IC50 in test [1] (setting [4]) was ≤ 10 nM; in test [1] (setting [5]) it was ≤ 10 nM; in test [1] (setting [6]) it was 10 to 100 nM; in test [1] (setting [7]), ≤ 10 nM; in test [1] (setting [8]), ≤ 10 nM; in test [2] it was ≤ 10 nM. The IC50 in test [3] is ≤ 10 nM.
As to `COCCOc1cc(F)c2c(Nc3ccc(NC(=O)NCCC(C)(C)C#N)c(F)c3)ncnc2c1` [Example 105], the IC50 was 10 to 100 nM in test [1] (setting [6]); ≤ 10 nM in test [1] (setting [7]); 100 to 1000 nM in test [1] (setting [8]); ≤ 10 nM in test [2]; ≤ 10 nM in test [3].
`COCCOc1cc(F)c2c(Nc3ccc(NC(=O)NCCCC(C)(C)F)cc3)ncnc2c1` [Example 106]: the IC50 in test [1] (setting [6]) was 10 to 100 nM; in test [1] (setting [7]) it was ≤ 10 nM; in test [1] (setting [8]), 10 to 100 nM; in test [2], ≤ 10 nM; in test [3], ≤ 10 nM.
As for `COCCOc1cc(F)c2c(Nc3ccc(NC(=O)CC(=O)NCCC(C)(C)OC)cc3)ncnc2c1` [Example 107], the IC50 in test [1] (setting [6]) is 100 to 1000 nM; in test [1] (setting [7]) it was 10 to 100 nM; in test [1] (setting [8]) it was > 1000 nM; in test [2] it was 100 to 1000 nM; in test [3], 10 to 100 nM.
On to `COCCOc1cc(F)c2c(Nc3ccc(NC(=O)CC(=O)NCC4(C)CCOCC4)cc3)ncnc2c1` [Example 109], for which the IC50 in test [1] (setting [6]) is 100 to 1000 nM; in test [1] (setting [7]) it was 10 to 100 nM; in test [1] (setting [8]), > 1000 nM; in test [2] it was 10 to 100 nM; in test [3], 10 to 100 nM.
For the compound `COCCOc1cc(F)c2c(Nc3ccc(NC(=O)CC(=O)NCC4(C)CCCO4)cc3)ncnc2c1` (stereo not shown) [Example 110], the IC50 in test [1] (setting [6]) was 100 to 1000 nM; in test [1] (setting [7]) it was 10 to 100 nM; in test [1] (setting [8]), > 1000 nM; in test [2], 10 to 100 nM; in test [3] it was 10 to 100 nM.
As to `COCCOc1cc(F)c2c(Nc3ccc(NC(=O)CC(=O)NCC4(C)CCC4)cc3)ncnc2c1` [Example 111], the IC50 was ≤ 10 nM in test [1] (setting [4]); 10 to 100 nM in test [1] (setting [5]); 10 to 100 nM in test [1] (setting [6]); ≤ 10 nM in test [1] (setting [7]); 10 to 100 nM in test [1] (setting [8]); ≤ 10 nM in test [2]. The IC50 in test [3] is ≤ 10 nM.
As for `COCCOc1cc(F)c2c(Nc3ccc(NC(=O)CC(=O)NC4CC(C)(C)C4)cc3)ncnc2c1` [Example 112], the IC50 was ≤ 10 nM in test [1] (setting [4]); 10 to 100 nM in test [1] (setting [5]); 10 to 100 nM in test [1] (setting [6]); ≤ 10 nM in test [1] (setting [7]); 10 to 100 nM in test [1] (setting [8]); ≤ 10 nM in test [2]. Also, the IC50 in test [3] fell in the range of 10 to 100 nM.
`COCCOc1cc(F)c2c(Nc3ccc(NC(=O)CC(=O)NC4CC(F)(F)C4)cc3)ncnc2c1` [Example 113]: the IC50 is 10 to 100 nM in test [1] (setting [6]); 10 to 100 nM in test [1] (setting [7]); 100 to 1000 nM in test [1] (setting [8]); 10 to 100 nM in test [2]; 10 to 100 nM in test [3].
With `COCCOc1cc(F)c2c(Nc3ccc(NC(=O)CC(=O)NC4CC5(COC5)C4)cc3)ncnc2c1` [Example 114], the IC50 is 100 to 1000 nM in test [1] (setting [6]); 100 to 1000 nM in test [1] (setting [7]); > 1000 nM in test [1] (setting [8]); 100 to 1000 nM in test [2]; 100 to 1000 nM in test [3].
`COCCOc1cc(F)c2c(Nc3ccc(NC(=O)CC(=O)NCC4CC(F)(F)C4)cc3)ncnc2c1` [Example 115]: the IC50 was in the range of 10 to 100 nM in test [1] (setting [6]); 10 to 100 nM in test [1] (setting [7]); 100 to 1000 nM in test [1] (setting [8]); 10 to 100 nM in test [2]; 10 to 100 nM in test [3].
For the compound `COCCOc1cc(F)c2c(Nc3ccc(NC(=O)CC(=O)N[C@H]4C[C@@H](OC)C4)cc3)ncnc2c1` [Example 116], the IC50 was 100 to 1000 nM in test [1] (setting [6]), 10 to 100 nM in test [1] (setting [7]), 100 to 1000 nM in test [2] and 100 to 1000 nM in test [3].
Turning to `COCCOc1cc(F)c2c(Nc3ccc(NC(=O)CC(=O)N[C@H]4C[C@H](OC)C4)cc3)ncnc2c1` [Example 117], the IC50 in test [1] (setting [6]) was 10 to 100 nM; in test [1] (setting [7]), 10 to 100 nM; in test [1] (setting [8]), > 1000 nM; in test [2] it was 10 to 100 nM; in test [3], 100 to 1000 nM.
Consider `COCCOc1cc(F)c2c(Nc3ccc(NC(=O)CC(=O)NCC4CC5(CCC5)C4)cc3)ncnc2c1` [Example 118], for which the IC50 in test [1] (setting [6]) is 10 to 100 nM; in test [1] (setting [7]), ≤ 10 nM; in test [1] (setting [8]), 10 to 100 nM; in test [2], 10 to 100 nM; in test [3] it was ≤ 10 nM.
For `COCCOc1cc(F)c2c(Nc3ccc(NC(=O)CC(=O)NCCC(C)(C)F)cc3)ncnc2c1` [Example 119], the IC50 in test [1] (setting [6]) is 10 to 100 nM; in test [1] (setting [7]), 10 to 100 nM; in test [1] (setting [8]) it was 100 to 1000 nM; in test [2] it was 10 to 100 nM; in test [3] it was 10 to 100 nM.
`COCCCOc1cc(F)c2c(Nc3ccc(NC(=O)NCCC(C)(C)F)cc3)ncnc2c1` [Example 120]: the IC50 in test [1] (setting [6]) is 10 to 100 nM; in test [1] (setting [7]), ≤ 10 nM; in test [1] (setting [8]) it was 100 to 1000 nM; in test [2] it was 10 to 100 nM; in test [3], ≤ 10 nM.

In general, IC50 refers to the midpoint of a concentration-inhibition curve.
